This note sets out measurements from ChEMBL document CHEMBL1130900, “Synthesis and structure-activity relationships of 2-pyridones: II. 8-(Fluoro-substituted pyrrolidinyl)-2-pyridones as antibacterial agents” (Bioorg Med Chem Lett, 1998).

Converted amounts (≈) assume the structure as drawn.

Data set [1] concerns Mus musculus. The data set is described as follows: Compound was tested for its effective dose against Staphylococcus aureus NCTC-10649M in mice upon peroral administration. In kind it is functional. Conditions: po.
Data set [2] is described as follows: Compound was tested for its effective dose against Escherichia coli JUHL in mice upon peroral administration. It counts as functional. Conditions: Mus musculus, po.
A further data set concerns Enterococcus faecium. The data set is described as follows: Antibacterial activity against Enterococcus faecium ATCC 8043 was determined. Conditions: Enterococcus faecium, ATCC 8043; read-out: MIC. It counts as functional.
Data set [3] relates to Escherichia coli. The data set is described as follows: Effective dose against Escherichia coli JUHL in mice upon subcutaneous administration. The settings on record: sc. In kind it is functional.
In data set [4] the test system is Staphylococcus aureus. Kind of data set: Antibacterial activity against Staphylococcus aureus NCTC-10649M was determined. In kind it is functional. Conditions: Staphylococcus aureus; read-out: MIC.
The test system of another data set is Klebsiella aerogenes. The data set is described as follows: Antibacterial activity against Enterobacter aerogenes ATCC 13048 was determined. It counts as functional. The settings on record: Klebsiella aerogenes, ATCC 13048; read-out: MIC.
Another data set concerns Streptococcus equinus. Kind of data set: Antibacterial activity against Gram-positive Streptococcus bovis A5169 was determined. It counts as functional. Conditions: Streptococcus equinus; read-out: MIC.
The next data set concerns Klebsiella pneumoniae. Kind of data set: Antibacterial activity against Klebsiella pneumoniae ATCC 8045 was determined. It counts as functional. The settings on record: Klebsiella pneumoniae, ATCC 8045; read-out: MIC.
In data set [5] the test system is Mus musculus. The data set is described as follows: Compound was tested for its effective dose against Staphylococcus aureus NCTC-10649M in mice upon subcutaneous administration. It counts as functional. Conditions: sc.
Data set [6] deals with Staphylococcus aureus. Kind of data set: Antibacterial activity against Staphylococcus aureus A1775 was determined. The settings on record: Staphylococcus aureus; read-out: MIC. It counts as functional.
The next data set concerns Providencia stuartii. The data set is described as follows: Antibacterial activity against Gram-negative Providencia Stuartii CMX640 was determined. It counts as functional. The settings on record: Providencia stuartii; read-out: MIC.
A further data set deals with Pseudomonas aeruginosa. Kind of data set: Antibacterial activity against Pseudomonas aeruginosa A-5007 was determined. In kind it is functional. The settings on record: Pseudomonas aeruginosa; read-out: MIC.
Data set [7] concerns Staphylococcus aureus. The data set is described as follows: Effective dose against Staphylococcus aureus NCTC-10649M in mice upon peroral administration. In kind it is functional. Conditions: po.
The test system of the next data set is Streptococcus pyogenes. Kind of data set: Antibacterial activity against Streptococcus pyogenes EES61 was determined. It counts as functional. The settings on record: Streptococcus pyogenes; read-out: MIC.
For data set [8], the system named is Escherichia coli. The data set is described as follows: Antibacterial activity against Escherichia coli JUHL was determined. In kind it is functional. The settings on record: Escherichia coli; read-out: MIC.
Data set [9] concerns Staphylococcus aureus. The data set is described as follows: Effective dose against Staphylococcus aureus NCTC-10649M in mice upon subcutaneous administration. In kind it is functional. Conditions: sc.
Data set [10] can be described thus: Compound was evaluated for maximal plasma concentration in rat upon 5 mg/kg upon oral administration. It counts as ADME, organism-based. Also on record: dose 5 mg/kg, route oral.
A short description of data set [11]: Oral bioavailability in rat (dose 5 mg/kg). It counts as ADME, organism-based. Conditions: in vivo.
The next data set concerns DNA gyrase (bacterial). Kind of data set: Compound was tested for bacterial DNA gyrase activity. The settings on record: Bacteria.
In data set [12] the test system is Mus musculus. Kind of data set: Compound was tested for its effective dose against Staphylococcus aureus NCTC-10649M in mice upon peroral administration; Mice were infected with 1000xLD50. Conditions: po. It counts as functional.

Turning to `O=C(O)c1cn(C2CC2)c2cc(N3CCNCC3)c(F)cc2c1=O` [CIPROFLOXACIN], the ED50 turned out to be 28.2 mg/kg/day in the data set with Mus musculus [1], 1 mg/kg/day in [2], 0.1 mg/kg/day in the data set with Escherichia coli [3] and 4.1 mg/kg/day in the data set on Mus musculus [5]. Also, the MIC in the data set with Enterococcus faecium is 0.78 µg/mL (≈ 2.35 µM); in the data set on Staphylococcus aureus [4], 0.39 µg/mL (≈ 1.18 µM); with Klebsiella aerogenes, 0.02 µg/mL (≈ 0.0604 µM); in the data set on Streptococcus equinus, 0.78 µg/mL (≈ 2.35 µM); with Klebsiella pneumoniae, 0.02 µg/mL (≈ 0.0604 µM); in the data set with Staphylococcus aureus [6], above 100 µg/mL. For the same compound, the MIC in the data set with Providencia stuartii was determined as 1.56 µg/mL (≈ 4.71 µM); with Pseudomonas aeruginosa, 0.2 µg/mL (≈ 0.604 µM).
Consider `Cc1c(N2CCC(F)C2)c(F)cn2c(=O)c(C(=O)O)cc(C3CC3)c12` (stereo not drawn), for which the minimal inhibitory concentration (MIC) in the data set with Enterococcus faecium is 0.05 µg/mL (≈ 0.144 µM); in the data set with Streptococcus pyogenes, 0.1 µg/mL (≈ 0.287 µM); with Escherichia coli [8], 0.1 µg/mL (≈ 0.287 µM); with Staphylococcus aureus [4], 0.02 µg/mL (≈ 0.0574 µM); with Klebsiella aerogenes, 0.39 µg/mL (≈ 1.12 µM); in the data set with Streptococcus equinus, 0.1 µg/mL (≈ 0.287 µM). Also, the minimum inhibitory concentration (MIC) amounted to 0.1 µg/mL (≈ 0.287 µM) with Klebsiella pneumoniae, 1.56 µg/mL (≈ 4.48 µM) with Staphylococcus aureus [6], 0.78 µg/mL (≈ 2.24 µM) in the data set with Providencia stuartii and 1.56 µg/mL (≈ 4.48 µM) in the data set with Pseudomonas aeruginosa. Further, the ED50 was above 50 mg/kg/day with Staphylococcus aureus [7] and above 12 mg/kg/day with Staphylococcus aureus [9]. In data set [10], this compound came in with a Cmax of 350 ng/mL. The compound further gave a bioavailability in data set [11] of 13%. Moreover, in the data set on DNA gyrase (bacterial), the CC50 was 0.6 µg/mL (≈ 1.72 µM).
In the case of `Cc1c(N2C[C@@H](N)[C@@H](F)C2)c(F)cn2c(=O)c(C(=O)O)cc(C3CC3)c12`, the ED50 in the data set on Mus musculus [12] stood at 7.7 mg/kg/day; in data set [2], 7.4 mg/kg/day; with Escherichia coli [3] it was 1.8 mg/kg/day; in the data set on Staphylococcus aureus [9], 1.5 mg/kg/day. For the same compound, the minimal inhibitory concentration (MIC) with Enterococcus faecium worked out at 0.1 µg/mL (≈ 0.275 µM); in the data set on Streptococcus pyogenes, 0.1 µg/mL (≈ 0.275 µM); in the data set with Escherichia coli [8], 0.02 µg/mL (≈ 0.055 µM); in the data set on Staphylococcus aureus [4] it was 0.02 µg/mL (≈ 0.055 µM); with Klebsiella aerogenes it was 0.05 µg/mL (≈ 0.138 µM); with Streptococcus equinus, 0.2 µg/mL (≈ 0.55 µM). In addition, the MIC turned out to be 0.05 µg/mL (≈ 0.138 µM) in the data set with Klebsiella pneumoniae, 1.56 µg/mL (≈ 4.29 µM) in the data set with Staphylococcus aureus [6], 0.78 µg/mL (≈ 2.15 µM) in the data set on Providencia stuartii and 0.39 µg/mL (≈ 1.07 µM) with Pseudomonas aeruginosa. Further, the highest level in data set [10] (Cmax) was 900 ng/mL. For the same compound, in data set [11], the bioavailability was found to be 34%.

The ED50 is the dose at which the effect has come halfway, by size or by number of responders. Usually MIC stands for the lowest concentration found to suppress growth. As a reminder, the Cmax is the peak of the concentration-time curve. What is called bioavailability is dose-corrected exposure relative to a reference, in per cent. High values mean good availability, low ones poor availability.
